Values of other authors in patent US9371263B2, “Protective effects of curcumin against hemorrhagic stroke injury” (Augusta University Research Institute, Inc., priority 2013, dated 2016).

Details: humans, oral administration

In the case of `COc1cc(/C=C/C(=O)CC(=O)/C=C/c2ccc(O)c(OC)c2)ccc1O` [curcumin, diferuloylmethane], the systemic bioavailability is listed as “relatively low”.
